Experimental data: US8110577B2, “Histone deacetylase inhibitors” (Queen Mary & Westfield College, priority 2006, dated 2012)
Like-named read-outs stand apart in the source and are kept apart here.

Experiments:
[1] = molecular target: Partially purified HDAC enzyme (liver prep); experiment: HDAC activity assay (MAL deacetylation, HPLC) with partially purified liver HDAC; assay type: biochemical, rat
From the text: The activity of compounds as inhibitors of histone deacetylase was investigated using a modified procedure based on a rapid in vitro HDAC activity assay (HDAC mediated deacetylation of an Ω-acetylated lysine (MAL)) as described by Hoffman et al in Nucl. Acids. Res. 27 2057-2058 (1999).
The HDAC substrate N-(-4-methyl-7-coumarinyl)-N-α-(tert-butyloxy-carbonyl)-N-Ω abbreviated as MAL was synthesised as described (Hoffman et al 1999). HDAC inhibitors and substrate (MAL) were made up in Hepes buffer (50 mM, pH 7.4). Partially purified HDAC enzyme (liver prep, 100 μL), HDAC inhibitor or Hepes buffer (100 μl), substrate (MAL, 100 μL 5 μg/mL) and assay buffer (100 μL, tris-HCl (10 mM), NaCl (10 mM), MgCl2 (15 mM), EGTA (0.1 mM), 10% (v/v) glycerol, and mercaptoethanol (0.007%)) were incubated at 37° C. for 60 minutes. The reaction was terminated with 100 μl acetonitrile, and MAL and the deacetylated product (ML) were determined in the supernatant.
(§1) Chromatographic separation of MAL and ML was carried out using a 15 cm Apex ODS […] column with acetonitrile/distilled water (40:60), 2% trifluoracetic acid (TFA) v/v mobile phase at a flow rate of 1.2 ml/minute. MAL and ML were quantified by fluorescence detection at excitation/emission wavelengths of 330/395 nm.
(§2) The activity of each inhibitor was assessed at a minimum of 5 non-zero concentrations. MAL and ML peak heights were used to derive the percentage MAL in the mixture as the ration of MAL: MAL+ML.
HDAC inhibitory activity against cell-free HDACs isolated from rat liver was determined using the HPLC method.

[2] = test system: Cell-free (CEM cells) HDAC; experiment: Cell-free (CEM cells) HDAC inhibitory activity, fluorescent commercial kit (Upstate Cell Signaling); assay type: biochemical
From the text: HDAC inhibitory activity has also been determined using a fluorescent commercial kit method (Upstate Cell Signaling).

[3] = test system: acetylated histone H3 in MCF-7 cells; experiment: Histone H3 acetylation in MCF7 cells (protein blot); assay type: cell-based; settings: for histone H3 acetylation with time: FIG. 5; for change in histone H3 acetylation: 2 hour exposure to increasing concentrations, FIG. 4
Protocol: The effect of the compounds on the acetylation of histone H3 was investigated in MCF-7 cells. Briefly cells were treated with a range of concentration of specific inhibitor or different exposure durations. Cells were then lysed and the proteins resolved by polyacrylamide electrophoresis prior to blotting onto a nitrocellulose membrane and staining with an antibody specific for the protein under study (acetylated histone H3) and a control protein (β-actin). As HDAC inhibitors reduce deacetylase activity, treatment of intact cells results in the accumulation of acetylated histones.

[4] = test system: MCF7 (breast cancer) tumours; experiment: MCF7 xenograft study in nude mice; assay type: in vivo; settings: 15 day treatment, FIG. 6
Protocol: Xenograft studies were carried out with MCF7 cells implanted under the skin on the flank of female nude mice (5-8 weeks of age). […] Animals also received a 2 mg oestrogen pellet as an implant on the day of tumour implantation. Tumour volumes were determined from measurements of 2 diameters carried out every other day out to day 15 of treatment.

[5] = test system: panel of 8 lymphoma cell lines; experiment: Cell viability (ATP) in a panel of 8 lymphoma cell lines; assay type: cell-based; settings: ATP endpoint assay, read-out: EC50 values (range over the panel)
Protocol: (§3) EC50 values for percentage viability (3-day exposure) were determined using 2 different methods, trypan blue staining and an ATP assay. Trypan blue staining relies on the ability of healthy cells with intact membranes to exclude dyes. As cells start to undergo programmed cell death membrane integrity becomes compromised allowing dye entry. The % cells staining positive for trypan blue relative to the total cell number therefore reflects % cell viability (% viability). Non-viable cells also lose the ability to regenerate ATP. A specific ATP assay procedure using a 96-well plate-based approach (Vialite assay, Cambrex, UK) also measures cell viability, expressed relative to the ATP value in the control (untreated) cell population.

[6] = test system: HDAC activity in intact CEM cells; experiment: Whole cell HDAC activity assay (MAL) in intact CEM cells; assay type: cell-based; settings: FIG. 2, read-out: HDAC inhibitory values in intact CEM cells
Protocol: Cells were then rapidly washed at 4° C., lysed by sonication, the reaction stopped with acetonitrile, and MAL and the deacetylated product determined in the supernatant by rapid HPLC.
as §1, §2

CEM (leukaemic) cells = experiment: Cell viability / cytotoxic activity, ATP Vialite assay, CEM cells; assay type: cell-based; settings: Homo sapiens, CCRF-CEM
Protocol: as §3
Effects against viable cell number have been determined using the ATP Vialite kit method (Cambrex, UK).

[7] = test system: MCF7 (breast cancer) cells; experiment: Cell viability, 3-day exposure, MCF7 cells; assay type: cell-based; settings: Homo sapiens, 72 h, 3 day incubation, FIG. 3
Protocol: as §3

[8] = test system: HCT116 (colorectal cancer) cells; experiment: Cell viability, 3-day exposure, HCT116 cells; assay type: cell-based; settings: Homo sapiens, HCT-116, 72 h, 3 day incubation, FIG. 3
Protocol: as §3

[9] = cell-free HDACs isolated from rat liver, HPLC method, different liver preparation than Example 1, read-out: HDAC inhibitory IC50

How did the IC50 [1, 9] turn out when `Cc1nsc(C(CCCCCC(=N)NO)C(=O)Nc2ccccc2)n1` (stereo not drawn) [67022,19, 7-(N-Hydroxycarbamimidoyl)-2(3-methyl[1,2,4]thiadiazol-5-yl)heptanoic Acid Phenylamide] was run?
Its IC50 is 44.6 ± 5.6 µM.

What about the IC50 [2] of the same compound?
The IC50 was 46.1 ± 12 µM.

How did the IC50 [1, 9] turn out when `Cc1nsc(C(CCCCCC(N)=S)C(=O)Nc2ccccc2)n1` (stereo not drawn) [67022,20, 2-(3-Methyl-[1,2,4]thiadiazol-5-yl)-7-thiocarbamoylheptanoic Acid Phenylamide] was run?
Its IC50 is 318 µM.

Which “histone H3 acetylation with time” value ([3]; 3 μM SAHA, time periods up to 48 hours) does the source give for `O=C(CCCCCCC(=O)Nc1ccccc1)NO` [SAHA, suberoylanilide hydroxamic acid, reference compound] here?
Its value is “acetylation increased up to 6 hours, but had decreased to baseline levels by 24 hours”.

And the “change in histone H3 acetylation” value [3]?
The value was “relatively minor changes in acetylation state at concentrations <1.0 μM”.

And the “effect on tumour growth” value ([4]; daily IP 25 mg/kg in DMSO)?
Its value is “not very different to treatment with the DMSO vehicle alone”.

Which results are given for `O=C(CCCCCC(C(=O)Nc1ccccc1)C(=O)Nc1ccccc1)NO` [UCL67022, 2-Phenylcarbamoyl-octanedioic acid 8-hydroxyamide 1-phenylamide]?
histone H3 acetylation with time ([3]; 0.3 μM UCL67022, time periods up to 48 hours): acetylation continued to increase out to 24 hours, and was still substantially higher than baseline at 48 hours; change in histone H3 acetylation [3]: marked change in histone H3 acetylation at concentrations as low as 0.1 μM; EC50 [5]: 0.02 to 0.08 µM; IC50 [6]: 0.11 ± 0.02 µM; IC50 [1, 9]: 0.04 ± 0.009 µM; IC50 ([1]; partially purified rat liver preparation, Example 1, FIG. 1, read-out: HDAC inhibitory activity IC50): 0.05 ± 0.01 µM; EC50 (CEM (leukaemic) cells; 72 h, CEM cells, 3 day incubation, FIG. 3): 0.06 µM; IC50 (CEM (leukaemic) cells; cytotoxic activity against CEM (leukaemic) cells, viable cell number, ATP Vialite kit, read-out: HDAC inhibitory IC50): 0.098 ± 0.042 µM; EC50 [7]: 0.13 µM; EC50 [8]: 0.07 µM; effect on tumour growth ([4]; daily IP dose levels 12.5·M and 6.25·M): appeared to have a clear effect on tumour growth; IC50 [2]: 0.086 ± 0.007 µM
